Assay results published in the supplement of paper PMC10307832.

Key:
Test in all cases: relative viability (nuclei count vs DMSO), 5 days (fraction); higher = more cells survive
Etoposide + Phenformin = compound: COc1cc([C@@H]2c3cc4c(cc3[C@@H](O[C@@H]3O[C@@H]5CO[C@@H](C)O[C@H]5[C@H](O)[C@H]3O)[C@H]3COC(=O)[C@H]23)OCO4)cc(OC)c1O [Etoposide] + N=C(N)NC(=N)NCCc1ccccc1 [Phenformin] (partner 250 µM)
How it was run: (§1)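 Lung cancer cell lines were seeded in 1536-well plates and dosed by pin tool the next day, with either a single drug or a fixed anchor-drug dose combined with five library-drug doses (not always all listed) spaced in √10 steps. Five days later, one step fixed the cells and stained their nuclei (final 0.05% Triton X-100, 1% formaldehyde, 1 ug/ml Hoechst), and nuclei were counted on 4× images. Relative viability is the nuclei count in treated wells divided by the count in vehicle wells, and each value is the median of duplicate plates.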

Etoposide + Alpelisib = compound: COc1cc([C@@H]2c3cc4c(cc3[C@@H](O[C@@H]3O[C@@H]5CO[C@@H](C)O[C@H]5[C@H](O)[C@H]3O)[C@H]3COC(=O)[C@H]23)OCO4)cc(OC)c1O [Etoposide] + Cc1nc(NC(=O)N2CCC[C@H]2C(N)=O)sc1-c1ccnc(C(C)(C)C(F)(F)F)c1 [Alpelisib] (partner 2 µM)
How it was run: as §1

Etoposide + Tozasertib = compound: COc1cc([C@@H]2c3cc4c(cc3[C@@H](O[C@@H]3O[C@@H]5CO[C@@H](C)O[C@H]5[C@H](O)[C@H]3O)[C@H]3COC(=O)[C@H]23)OCO4)cc(OC)c1O [Etoposide] + Cc1cc(Nc2cc(N3CCN(C)CC3)nc(Sc3ccc(NC(=O)C4CC4)cc3)n2)n[nH]1 [Tozasertib] (partner 0.1 µM)
How it was run: as §1

Etoposide + Palbociclib = compound: COc1cc([C@@H]2c3cc4c(cc3[C@@H](O[C@@H]3O[C@@H]5CO[C@@H](C)O[C@H]5[C@H](O)[C@H]3O)[C@H]3COC(=O)[C@H]23)OCO4)cc(OC)c1O [Etoposide] + CC(=O)c1c(C)c2cnc(Nc3ccc(N4CCNCC4)cn3)nc2n(C2CCCC2)c1=O [Palbociclib] (partner 0.5 µM)
How it was run: as §1

Row | Cell Line | relative viability (Etoposide + Phenformin; first compound 0.01 µM) | relative viability (Etoposide + Phenformin; first compound 0.03162 µM) | relative viability (Etoposide + Phenformin; first compound 0.1 µM) | relative viability (Etoposide + Phenformin; first compound 0.3162 µM) | relative viability (Etoposide + Phenformin; first compound 1 µM) | relative viability (Etoposide + Alpelisib; first compound 0.01 µM) | relative viability (Etoposide + Alpelisib; first compound 0.03162 µM) | relative viability (Etoposide + Alpelisib; first compound 0.1 µM) | relative viability (Etoposide + Alpelisib; first compound 0.3162 µM) | relative viability (Etoposide + Alpelisib; first compound 1 µM) | relative viability (Etoposide + Tozasertib; first compound 0.01 µM) | relative viability (Etoposide + Tozasertib; first compound 0.03162 µM) | relative viability (Etoposide + Tozasertib; first compound 0.1 µM) | relative viability (Etoposide + Tozasertib; first compound 0.3162 µM) | relative viability (Etoposide + Tozasertib; first compound 1 µM) | relative viability (Etoposide + Palbociclib; first compound 0.01 µM) | relative viability (Etoposide + Palbociclib; first compound 0.03162 µM) | relative viability (Etoposide + Palbociclib; first compound 0.1 µM) | relative viability (Etoposide + Palbociclib; first compound 0.3162 µM) | relative viability (Etoposide + Palbociclib; first compound 1 µM)
1 | NCI-H647 | 0.386 | 0.592 | 0.509 | 0.245 | 0.094 | 1.19 | 1.22 | 1.02 | 0.429 | 0.125 | 0.224 | 0.0009 | 0.271 | 0.205 | 0.112 | 0.423 | 0.458 | 0.321 | 0.258 | 0.216
2 | A-427 | 0.362 | 0.317 | 0.258 | 0.213 | 0.143 | 1.07 | 1.14 | 0.713 | 0.755 | 0.229 | 0.213 | 0.224 | 0.219 | 0.165 | 0.147 | 0.51 | 0.479 | 0.486 | 0.378 | 0.282
3 | EMC-BAC-2 | 0.424 | 0.483 | 0.309 | 0.24 | 0.197 | 0.711 | 0.65 | 0.522 | 0.238 | 0.15 | 0.251 | 0.276 | 0.288 | 0.221 | 0.203 | 0.495 | 0.49 | 0.399 | 0.321 | 0.254
4 | NCI-H460 | 0.476 | 0.492 | 0.352 | 0.0419 | 0.0382 | 0.479 | 0.355 | 0.272 | 0.0559 | 0.0284 | 0.396 | 0.369 | 0.338 | 0.0692 | 0.0251 | 0.131 | 0.11 | 0.111 | 0.0408 | 0.0313
5 | LCLC-103H | 0.316 | 0.348 | 0.329 | 0.346 | 0.305 | 1.02 | 1.12 | 0.774 | 0.973 | 0.703 | 0.427 | 0.574 | 0.459 | 0.526 | 0.35 | 0.526 | 0.553 | 0.509 | 0.457 | 0.407
6 | HCC-827 | 0.413 | 0.412 | 0.338 | 0.315 | 0.156 | 0.967 | 0.912 | 0.696 | 0.453 | 0.18 | 0.388 | 0.453 | 0.433 | 0.192 | 0.173 | 0.418 | 0.475 | 0.341 | 0.161 | 0.156
7 | NCI-H1355 | 0.452 | 0.493 | 0.408 | 0.325 | 0.218 | 0.811 | 0.969 | 0.343 | 0.53 | 0.304 | 0.515 | 0.536 | 0.433 | 0.313 | 0.228 | 0.423 | 0.473 | 0.275 | 0.355 | 0.281
8 | NCI-H1734 | 0.366 | 0.468 | 0.324 | 0.37 | 0.233 | 0.698 | 0.822 | 0.509 | 0.517 | 0.381 | 0.269 | 0.254 | 0.279 | 0.273 | 0.24 | 0.358 | 0.374 | 0.312 | 0.306 | 0.242
9 | HARA | 0.507 | 0.407 | 0.504 | 0.366 | 0.178 | 0.649 | 0.854 | 0.792 | 0.584 | 0.167 | 0.149 | 0.112 | 0.127 | 0.0757 | 0.0743 | 0.242 | 0.335 | 0.245 | 0.269 | 0.203
10 | HCC-15 | 0.496 | 0.526 | 0.429 | 0.152 | 0.132 | 0.894 | 0.898 | 0.721 | 0.333 | 0.122 | 0.386 | 0.348 | 0.367 | 0.23 | 0.122 | 0.623 | 0.695 | 0.828 | 0.468 | 0.244
11 | LCLC-97TM1 | 0.454 | 0.487 | 0.439 | 0.328 | 0.184 |  | 0.309 | 0.132 | 0.139 | 0.107 | 0.201 | 0.2 | 0.208 | 0.19 | 0.144 | 0.243 | 0.248 | 0.169 | 0.165 | 0.121
12 | SK-LU-1 | 0.476 | 0.605 | 0.322 | 0.224 | 0.183 | 0.781 | 0.875 | 0.648 | 0.299 | 0.233 | 0.356 | 0.278 | 0.318 | 0.161 | 0.167 | 0.381 | 0.397 | 0.319 | 0.247 | 0.22
13 | NCI-H1651 | 0.293 | 0.351 | 0.286 | 0.205 | 0.149 | 0.844 | 0.833 | 0.984 | 0.511 | 0.24 | 0.675 | 0.692 | 0.547 | 0.159 | 0.156 | 0.512 | 0.515 | 0.414 | 0.359 | 0.178
14 | NCI-H2170 | 0.373 | 0.429 | 0.468 | 0.409 | 0.348 | 0.65 | 0.849 |  | 0.621 | 0.513 | 0.634 | 0.778 | 0.522 | 0.593 | 0.526 | 0.382 | 0.427 |  | 0.36 | 0.319
15 | NCI-H2023 | 0.403 | 0.385 | 0.307 | 0.198 | 0.107 | 0.597 | 0.615 | 0.543 | 0.388 | 0.138 | 0.308 | 0.337 | 0.429 | 0.291 | 0.109 | 0.312 | 0.201 | 0.351 | 0.201 | 0.173
